According to US20250099428A1, “USE OF BENZISOSELENAZOLE COMPOUND IN PREPERATION OF DRUG FOR TREATMENT OF SPINAGLIOMA” (Beijing Neurosurgical Institute, priority 2022, published 2025):
Entries after “also recorded” stand apart in the source; their conditions may differ.

Columns and labels:
[1] = tested on: SP0001 human-derived spinaglioma tumor; experiment: SP0001 tumor-bearing NPG mouse model, tumor growth inhibition; assay type: in vivo, NPG immunodeficient mice; details: for tumor volume inhibition rate: end of experiment; for tumor size at end of experiment: intragastric once a day, 24 days
Protocol: (§1) First, a tumor-bearing mouse model was built. Female NPG immunodeficient mice (6-8 weeks, starting weight 16-21 g, purchased from Beijing Vitalstar Biotechnology Co., Ltd.) were used for experimental research. The animals were raised and operated under sterile conditions, and all animal experiments were conducted in accordance with the international guidelines for animal experimentation. SP0001 human-derived spinaglioma tumor blocks (2-3 mm^3) were prepared and inoculated subcutaneously to the right ventrodorsal side of each NPG mouse. After inoculation, the status of the mice was observed, and the size of the tumor was measured. The animals with a tumor volume of 40 mm^3 were selected for experiment, and the animals that had too large tumor and no tumor were not selected. A total of 40 suitable tumor-bearing animals were selected for the experiment and divided into 5 experimental groups, with 8 mice in each group. The first day of administration was recorded as D1, the second day of administration was recorded as D2, and so on. All the animals were administered intragastrically once a day for 24 consecutive days. […] In the experiment, the physiological saline group was used as a negative control, and the temozolomide (TMZ) treatment group was used as a positive control.

[2] = Body weight and toxicity in tumor-bearing NPG mice; assay type: in vivo, NPG immunodeficient mice; details: for toxic and side effects on NPG mice: intragastric once a day, 24 days, BS: BSM and BSH groups, TMZ 30 mg/Kg
Protocol: as §1
During the experiment, no clinical abnormal symptoms or animal deaths due to drug toxicity were observed.
The histogram of the weight change rate of NPG mice after administration was shown in FIG. 9 (BSL, BSM, and BSH represent a low dose group 90 mg/Kg, a medium dose group 180 mg/Kg, and a high dose group 360 mg/Kg of the drug BS respectively).

[3] = tested on: Spinaglioma cells SP0001; experiment: CCK8 cell proliferation inhibition, spinaglioma cells SP0001; assay type: cell-based, human; details: for growth inhibition / killing effect on SP0001 cells: CCK8, cytarabine 24, 48, 96 hours, BS 24, 48 hours
Protocol: (§2) Spinaglioma cells SP0001 in a logarithmic growth phase were digested with trypsin and centrifuged to obtain a cell precipitate, and cells were counted after being re-suspended in a complete medium. Based on the count results, the cells SP0001 were inoculated into a 96-well cell culture plate with 5000 cells per well and cultured in a 37° C. incubator in a 5% CO2 environment. After 24 hours, the cells were treated with drugs. Atemozolomide (TMZ) compound and a benzisoselenazole compound (BS) of the present invention were respectively dissolved in DMSO to prepare a stock solution, which was then dissolved with the complete medium to different drug concentrations. The gradient concentrations of TMZ were 0, 100, 150, 200, 250, 300, 350, and 400 μM. The gradient concentrations of BS were 0, 1, 2, 3, 4, 5, 6, 7, and 8 μM. The medium was removed from the wells, and the corresponding drug solution of each concentration was added with 100 μL per well.
[…] When testing, a CCK8 working solution was prepared in advance, namely, an appropriate volume of working solution was prepared based on 100 μL serum-free medium and 10 μL CCK8 per well, and the working solution was placed in dark. The well plate was taken out of the incubator, the cell medium was removed from the wells to be tested, 110 μL of CCK8 working solution was added to each well, the incubation was continued for 2 hours, then the absorbance at 450 nm was measured on an enzyme-linked immunosorbent assay (ELISA) reader, an inhibition rate corresponding to each concentration was calculated, and IC50 values at corresponding time were calculated using GraphPad 7.0 software.
This example measured the killing effects of a cytarabine compound and the BS compound of the present invention on two types of spinaglioma cell lines SCA-S01 and SP0001, using the same method as Example 1.

[4] = tested on: SCA-S01 cells; experiment: CCK8 cell proliferation inhibition, spinaglioma cells SCA-S01; assay type: cell-based, human; details: cytarabine 24, 48, 96 hours, BS 24, 48 hours
Protocol: as §2, with “The medium was removed from the wells, and the corresponding drug solution of each concentration was added with 100 μL per well.” left out
The well plate was put back into the incubator, and cell proliferation was tested after 24 and 48 hours, respectively. […] The well plate was taken out of the incubator, the cell medium was removed from the wells to be tested, 110 μL of CCK8 working solution was added to each well, the incubation was continued for 2 hours, then the absorbance at 450 nm was measured on an enzyme-linked immunosorbent assay (ELISA) reader, an inhibition rate corresponding to each concentration was calculated, and IC50 values at corresponding time were calculated using GraphPad 7.0 software. […]

[5] = tested on: primary spinaglioma cell line SP0001; experiment: Live and dead cell fluorescence staining of SP0001 cells; assay type: cell-based, human; details: 6 μM, treated 48 hours
Protocol: Fluorescence staining was performed using live and dead cell staining technology on the primary spinaglioma cell line SP0001 treated with the benzisoselenazole compound for 48 hours.

[6] = SP0001 cells, CCK8, 24 and 48 hours

With Cn1nnc2c(C(N)=O)ncn2c1=O [TMZ, temozolomide, reference compound] the “tumor volume inhibition rate” value ([1]; TMZ group 30 mg/Kg) was 82.59%, the “tumor size at end of experiment” value ([1]; TMZ group 30 mg/Kg) was 26.61±10.30 mm^3 and the “weight loss compared to the Control group (decrease)” value ([2]; TMZ group 30 mg/Kg) was “over 20%”. For the same compound, the “toxic and side effects on NPG mice” value [2] was “significant toxic and side effects; also recorded: obvious toxicity”.
With Nc1ccn([C@@H]2O[C@H](CO)[C@@H](O)[C@@H]2O)c(=O)n1 [cytarabine, reference compound] the “growth inhibition / killing effect on SP0001 cells” value [3] was “cannot significantly inhibit the growth” and the “killing effect on SCA-S01 cells” value [4] was “weak killing effect”.
In the case of O=c1c2ccccc2[se]n1CCCCn1[se]c2ccccc2c1=O [BS], the “growth inhibition / killing effect on SP0001 cells” value [3] is reported as “significant killing effect”, the “inhibitory effect on proliferation of patient-derived spinaglioma cell line” value [3, 6] is reported as “obvious inhibitory effect” and the “sensitivity of patient-derived spinaglioma to the compound” value [3, 6] is reported as “sensitive”. For the same compound, the killing effect [5] was 90%, the “tumor volume inhibition rate” value ([1]; BS high dose 360 mg/Kg) was 45.99% and the “tumor volume inhibition rate” value ([1]; BS low dose 90 mg/Kg) was 14.01%. The “tumor volume inhibition rate” value ([1]; BS medium dose 180 mg/Kg) was 25.89%, the “tumor size at end of experiment” value ([1]; BSH high dose 360 mg/Kg) was 82.56±41.40 mm^3 and the “tumor size at end of experiment” value ([1]; BSL low dose 90 mg/Kg) was 131.44±39.81 mm^3. The “tumor size at end of experiment” value ([1]; BSM medium dose 180 mg/Kg) was 113.29±57.21 mm^3, the “weight change during administration” value ([2]; BSM and BSH groups (180 and 360 mg/Kg)) was “did not show any weight loss; also recorded: no significant change in body weight” and the “toxic and side effects on NPG mice” value [2] was “no significant toxic and side effects”. The “killing effect on SCA-S01 cells” value [4] was “strong killing effects”.
